Test results taken from US12076329B2, “Compositions and methods for enhancing visual function” (The Regents of the University of California, priority 2020, dated 2024).

Columns and labels:
[1] = system: rd1 mice expressing SNAP-mGluR2 in ON-BCs; test: Line pattern recognition (learned aversive association, iPad displays), SNAP-mGluR2 in ON-BCs; assay type: in vivo, mouse; conditions: in PBS, trained and tested within a week after intravitreal injection
Description: Modified active avoidance was assayed as previously described^19, using the Coulbourn shuttle box (H10-11M-SC), however, now iPad tablet screens were mounted onto the shuttle cage wall, each displaying one of two images that differed in orientation or distance between two lines but were otherwise of equal shape, size, and light intensity. The aversive image side was paired with a foot shock of 0.7 mA. Upon recall the light patterns were reversed to avoid a bias for location and time spent on each side was recorded. Adaptation was tested by dimming or brightening the display to different intensities.
As shown above, ^4×BGAG12,460:SNAP-mGluR2 in either RGCs or ON-BCs confers high sensitivity light perception. It was asked whether ^4×BGAG12,460:SNAP-mGluR2 would support patterned vision. The ability of treated and untreated rd1 mice to discriminate between two different line patterns in a learned negative association task was tested. The task is carried out in a 2-chamber arena, where the floor in each chamber is conductive and can apply an independent aversive mild foot shock. […] The mouse was trained for two days, during which a mild foot shock was given in one of the chambers. The line pattern associated with the foot shock was assigned randomly initially but then kept consistent for that animal throughout the 2 days of training. […]

[2] = system: rd1 mice expressing SNAP-mGluR2 in RGCs; test: 2-chamber light/dark light aversion test, SNAP-mGluR2 in RGCs; assay type: in vivo, mouse
Description: Mouse experiments were conducted under the express approval of the University of California Animal Care and Use Committee, wt mice (C57BL/6J) and rd1 mice (C3H) were purchased from the Jackson Laboratory and housed on a 12-h light/dark cycle with food and water ad libitum. cDNA encoding SNAP-mGluR2 was inserted in an established viral cassette under control of either the human synapsin promoter (hsyn-1) for expression in RGCs or a 4-copy concatemer of the mouse grm6 minimal promoter (4×grm6) for expression in ON-BCs and packaged in the AAV 2/2-4YF capsid. The vector, containing 10^10-10^12 viral genomes was delivered in a 2 µl volume to the vitreous of the rd1 mouse eye via microinjection. rAAV injections were at p30-p60 and in vivo and in vitro experiments at p90-p160. AAVs were produced as previously described.
Photoswitch compounds were synthesized using the protocol described in Broichhagen, J., et al. (2015) ACS Cent Sci 1, 383-393. Stock solution of […] BGAG12,460 (L-diastereomer) in 100% pharmaceutical grade DMSO (Cryoserv; Bioniche Pharma) was diluted 1:100 in sterile PBS for a final working solution of 1 mM in 1% DMSO. Working solutions were either prepared before administration, prepared in stock stored in the freezer and used as required, or salvaged from the recording bath and stored (either RT or freezer) for reuse. Application of BGAG12,460 or BGAG12 on retinal explants were performed in a volume of 200 μL at a concentration of 50 μM to 50 nM BGAG12,460 (in PBS with >1% DMSO). For in vivo behavioral experiments, a 2-μL volume of 1 mM or 3.5 μL (final vitreal concentration of […]) of BGAG12,460 solution (in PBS with 1% DMSO) was injected into eyes that treated with AAV>6 wks earlier). For in vivo concentration dependence experiments, the mouse eye was assumed to contain a volume of 5.3 μL and a 2-μL volume of 3.5 μM, 1.825 μM and 0.1825 μM BGAG12,460 solution (in PBS with 1% DMSO) was injected into eyes to obtain a final concentration of 1 μM, 500 nM and 50 nM^62. For hydrated slow release 5% pharmaceutical grade beta cyclodextrin (cyclodex) in PBS was mixed with BGAG12,460 for a final concentration of 3 μM and 2 μL were injected bilaterally into the mouse eye. MAG0460 was synthesized and administered in 2 μL at a concentration of 100 μM.
The 2-chamber light-dark passive avoidance test was performed. White light (wavelength range) at ˜100 μW cm^2 or either blue light (460/45 nm) or green light (535/50 nm) at 0.5-25 μW cm^2 was mounted above the chamber with homogeneously distributed light.
Animal movements were tracked using IR sensors on the shuttle box. Time spent in the light and dark chambers was measured and analyzed using Graphic State and Graphic State RT (Coulbourn Instruments).
Natural light aversion behavior was tested. […]

With Nc1nc(OCc2ccc(CNC(=O)CCCC(=O)N[C@H](CCC(=O)N[C@H](CCC(=O)NCCOCCOCCOCCOCCOCCOCCOCCOCCOCCOCCOCCOCCC(=O)NCCNc3ccc(/N=N/c4ccc(NC(=O)CCC[C@@H](C[C@H](N)C(=O)O)C(=O)O)cc4)cc3)C(=O)NCCOCCOCCOCCOCCOCCOCCOCCOCCOCCOCCOCCOCCC(=O)NCCNc3ccc(/N=N/c4ccc(NC(=O)CCC[C@@H](C[C@H](N)C(=O)O)C(=O)O)cc4)cc3)C(=O)N[C@H](CCC(=O)NCCOCCOCCOCCOCCOCCOCCOCCOCCOCCOCCOCCOCCC(=O)NCCNc3ccc(/N=N/c4ccc(NC(=O)CCC[C@@H](C[C@H](N)C(=O)O)C(=O)O)cc4)cc3)C(=O)NCCOCCOCCOCCOCCOCCOCCOCCOCCOCCOCCOCCOCCC(=O)NCCNc3ccc(/N=N/c4ccc(NC(=O)CCC[C@@H](C[C@H](N)C(=O)O)C(=O)O)cc4)cc3)cc2)c2nc[nH]c2n1 [^4×BGAG12,460] the “line pattern recognition, parallel lines spaced 1 versus 6 cm” value [1] was “spent also more time on the side of the non-aversive visual display”, the “dark preference three weeks after injection” value ([2]; in PBS intravitreal) was “disappeared” and the “light aversion (time in dark versus illuminated chamber)” value ([2]; in PBS intravitreal, first week after injection, white screen 88 uW/cm^2) was “spent more time in the dark chamber than in the illuminated chamber”. The “light aversion at 0.2 μW/cm^2” value ([2]; intensity-response relation) was “operating at chance” and the “light intensity giving maximal light-aversion behavior” value ([2]; intensity-response relation) was 25 μW/cm^2.
